Source: paper PMC11220827 (Frontiers in Pharmacology, 2024)
Read-outs that look alike come from different tables or passages of the source.

Legend:
HepG2 cells = test: cells; assay type: cell-based; settings: for AC50: Homo sapiens, HepG2, 24 h
Thyroid peroxidase = test system: Thyroid peroxidase; parameters: method as in ToxCast; settings: ref ToxCast; cited from earlier work; also: key: Pos = positive result; Neg = negative result; Inc = uncertain/inconclusive result
Monooxygenase = test system: Monooxygenase; parameters: method as in ToxCast; settings: ref ToxCast, cited from earlier work; as to Thyroid pathway: Monooxygenase (Not AOP), Call: key: Pos = positive result; Neg = negative result; Inc = uncertain/inconclusive result
ER = test system: ER; parameters: method as in Opera; settings: experimental call listed in the Opera output; ref Opera; cited from earlier work
Deiodinase = test system: Deiodinase; parameters: method as in ToxCast; settings: ref ToxCast, cited from earlier work
[1] = assay type: in vitro ADME; settings: 3 nmol/cm^2 in the body lotion formulation
From the text: Additional information was required to determine whether an adjustment factor was needed to account for a difference in the absorption of daidzein after topical application and whether the absorption was impacted by the use of the intended (body lotion base) formulation. […]. […] […]. The results of this study are described in detail by [Géniès et al. (2024)] and are summarized here.

COX2 (h) = target: T1, COX2 (h) (Homo sapiens, UniProt P35354); test: Pharmacology profiling: COX2 (h); assay type: biochemical
T1 sequence (P35354 18-604): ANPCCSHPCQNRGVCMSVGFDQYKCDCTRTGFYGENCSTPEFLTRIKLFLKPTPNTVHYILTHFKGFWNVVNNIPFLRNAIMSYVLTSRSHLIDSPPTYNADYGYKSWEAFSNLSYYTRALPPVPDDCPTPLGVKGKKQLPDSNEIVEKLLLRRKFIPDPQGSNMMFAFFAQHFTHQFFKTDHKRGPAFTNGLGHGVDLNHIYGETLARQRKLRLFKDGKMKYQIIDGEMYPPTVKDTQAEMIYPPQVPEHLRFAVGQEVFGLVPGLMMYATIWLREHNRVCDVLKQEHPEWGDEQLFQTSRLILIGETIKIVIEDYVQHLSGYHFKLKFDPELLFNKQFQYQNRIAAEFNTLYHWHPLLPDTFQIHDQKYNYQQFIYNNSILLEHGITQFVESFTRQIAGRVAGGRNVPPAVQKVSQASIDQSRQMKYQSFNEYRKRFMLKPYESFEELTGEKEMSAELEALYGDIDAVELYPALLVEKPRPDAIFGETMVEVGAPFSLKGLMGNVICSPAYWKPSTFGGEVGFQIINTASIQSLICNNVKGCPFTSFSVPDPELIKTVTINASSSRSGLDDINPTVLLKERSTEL
From the text: (§1) Cosmetics Europe’s Systemic Toxicity Taskforce (SysTox-TF) has extended the list of targets in an in vitro screen originally described by [Bowes et al. (2012)] to assess the effects of cosmetic chemicals on target molecules. The approach was based on the knowledge that various targets of pharmacological interest have been linked to human adverse drug reactions, and that screening of these has helped the pharma industry in identifying drug candidates with acceptable human safety profiles ([Bowes et al., 2012]; [Scott et al., 2022]). The methods used by the pharma industry were adapted for use in cosmetic chemical NGRA. A final list of 83 target assays were considered suitable for cosmetic chemical safety testing (see Supplementary Materials S1.7). The targets were receptors, ion channels, transporters and enzymes identified by the pharma industry as linked to human adverse drug reactions, supplemented by additional targets that have been reasoned to be linked to systemic toxicities of chemicals in animals. Chemicals that are flagged for a target are tested in follow-up dose-response assays to establish potency of the interaction. […]. [Valentin et al., 2018]; [Dodson et al., 2021]). […].
(§2) assay’s reference compound was set to 100%. For antagonist assays, the basal signal (exposure to fixed concentration of agonist only) was set to 100%. Activity of the samples was scaled accordingly, […]
(§3) Using these graphs, lowest […]
(§4) compound activity for antagonist assays.
(§5) S1.7. Pharmacology profiling assays […]
(§6) reasoned to link to pathological effects. […]
(§7) around the control level. […]
(§8) determine the potency (IC50).
(§9) Supplementary Table S4 Pharmacology profiling assay panel. […]

Adenosine A2A (h) = Adenosine A2A (h) (Homo sapiens, UniProt P29274); test: Pharmacology profiling: Adenosine A2A (h) (agonist RL); assay type: binding
Sequence of Adenosine A2A (h) (P29274 whole entry): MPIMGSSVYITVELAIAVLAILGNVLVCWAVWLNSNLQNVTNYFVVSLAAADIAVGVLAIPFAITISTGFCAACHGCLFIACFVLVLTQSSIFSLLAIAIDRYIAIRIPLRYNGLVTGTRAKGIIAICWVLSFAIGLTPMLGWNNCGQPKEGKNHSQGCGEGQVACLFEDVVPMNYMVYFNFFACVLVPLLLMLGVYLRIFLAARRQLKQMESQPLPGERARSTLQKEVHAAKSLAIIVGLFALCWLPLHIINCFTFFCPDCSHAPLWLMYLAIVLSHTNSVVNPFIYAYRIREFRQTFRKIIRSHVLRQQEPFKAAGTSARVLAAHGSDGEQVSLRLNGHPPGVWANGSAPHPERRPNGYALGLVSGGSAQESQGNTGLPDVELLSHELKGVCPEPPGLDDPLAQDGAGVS
From the text: as §1, §2, §3, §4, §5, §6, §7, §8, §9

5-HT2B (h) = 5-HT2B (h) (Homo sapiens, UniProt P41595); test: Pharmacology profiling: 5-HT2B (h) (agonist RL); assay type: binding
Sequence of 5-HT2B (h) (P41595 whole entry): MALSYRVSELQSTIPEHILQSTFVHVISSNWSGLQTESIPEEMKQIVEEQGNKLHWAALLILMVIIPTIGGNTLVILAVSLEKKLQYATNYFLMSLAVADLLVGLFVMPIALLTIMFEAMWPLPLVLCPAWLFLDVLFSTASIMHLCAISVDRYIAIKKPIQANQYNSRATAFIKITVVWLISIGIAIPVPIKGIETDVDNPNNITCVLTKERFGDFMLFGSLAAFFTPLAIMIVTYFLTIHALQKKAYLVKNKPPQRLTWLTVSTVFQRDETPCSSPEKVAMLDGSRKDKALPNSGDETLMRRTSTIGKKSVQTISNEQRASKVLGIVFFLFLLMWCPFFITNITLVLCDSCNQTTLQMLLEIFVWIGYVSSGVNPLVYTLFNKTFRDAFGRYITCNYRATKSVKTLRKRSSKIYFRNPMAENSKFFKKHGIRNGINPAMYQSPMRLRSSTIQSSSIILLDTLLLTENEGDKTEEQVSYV
From the text: as §1, §2, §3, §4, §5, §6, §7, §8, §9

TSHR = test system: TSHR; parameters: method as in ToxCast; settings: ref ToxCast; cited from earlier work; also: key: Pos = positive result; Neg = negative result; Inc = uncertain/inconclusive result
Estrogen pathway = test system: Estrogen pathway; parameters: method as in ToxCast; settings: ref ToxCast; read-out: Estrogen pathway: Receptor binding, AC50; cited from earlier work
Aromatase = test system: Aromatase; parameters: method as in ToxCast; settings: ref ToxCast; cited from earlier work; also: key: Pos = positive result; Neg = negative result; Inc = uncertain/inconclusive result

## O=c1c(-c2ccc(O)cc2)coc2cc(O)cc(O)c12 [Genistein, 5,7-DIHYDROXY-3-(4-HYDROXYPHENYL)-4-BENZOPYRONE]
HepG2 cells
  AhR Translocation: Effect: increase
  Apoptosis & necrosis: caspase 3/7: Effect: increase
  Apoptosis & necrosis: cell cycle arrest: Effect: decrease
  Cellular ATP: Effect: decrease
  DNA damage: Phospho-p53: Effect: increase
  DNA damage: p-H2AX: Effect: increase
  ER stress panel 1: ER integrity: Effect: increase
  ER stress panel 1: XBP1: Effect: increase
  ER stress panel 2: CHOP: Effect: increase
  Inflammation & pH: HIF1α: Effect: increase
  Inflammation & pH: ICAM-1: Effect: increase
  Inflammation & pH: intracellular pH: Effect: increase
  Metal stress: MTF1: Effect: decrease
  Mitochondrial mass: Effect: increase
  Mitochondrial membrane potential: Effect: decrease
  Nuclear size: Effect: increase
  Osmotic & heat shock: NFAT: Effect: increase
  Oxidative stress: HMOX1: Effect: increase
  Oxidative stress: NRF2: Effect: increase
  Seahorse assay: Extracellular acidification rate (ECAR): Effect: decrease
  Seahorse assay: oxygen consumption rate (OCR): Effect: decrease
  Seahorse assay: reserve capacity: Effect: decrease
HepG2 cells; read-out: AhR Translocation: AC50
  AC50: > 100 µM
HepG2 cells; read-out: Apoptosis & necrosis: caspase 3/7: AC50
  AC50: > 100 µM
HepG2 cells; read-out: Apoptosis & necrosis: cell cycle arrest: AC50
  AC50: > 100 µM
HepG2 cells; read-out: Cellular ATP: AC50
  AC50: > 100 µM
HepG2 cells; read-out: DNA damage: Phospho-p53: AC50
  AC50: > 100 µM
HepG2 cells; read-out: DNA damage: p-H2AX: AC50
  AC50: > 100 µM
HepG2 cells; read-out: ER stress panel 1: ER integrity: AC50
  AC50: > 100 µM
HepG2 cells; read-out: ER stress panel 1: XBP1: AC50
  AC50: 40.4 µM
HepG2 cells; read-out: ER stress panel 2: CHOP: AC50
  AC50: > 100 µM
HepG2 cells; read-out: Inflammation & pH: HIF1α: AC50
  AC50: > 100 µM
HepG2 cells; read-out: Inflammation & pH: ICAM-1: AC50
  AC50: > 100 µM
HepG2 cells; read-out: Inflammation & pH: intracellular pH: AC50
  AC50: > 100 µM
HepG2 cells; read-out: Metal stress: MTF1: AC50
  AC50: > 100 µM
HepG2 cells; read-out: Mitochondrial mass: AC50
  AC50: > 100 µM
HepG2 cells; read-out: Mitochondrial membrane potential: AC50
  AC50: 69.6 µM
HepG2 cells; read-out: Nuclear size: AC50
  AC50: > 100 µM
HepG2 cells; read-out: Osmotic & heat shock: NFAT: AC50
  AC50: > 100 µM
HepG2 cells; read-out: Oxidative stress: HMOX1: AC50
  AC50: > 100 µM
HepG2 cells; read-out: Oxidative stress: NRF2: AC50
  AC50: > 100 µM
HepG2 cells; read-out: Seahorse assay: Extracellular acidification rate (ECAR): AC50
  AC50: > 100 µM
HepG2 cells; read-out: Seahorse assay: oxygen consumption rate (OCR): AC50
  AC50: > 100 µM
HepG2 cells; read-out: Seahorse assay: reserve capacity: AC50
  AC50: > 100 µM
HepG2 cells; human, 24 h
  AhR Translocation: MEC: 51.2 µM
  Apoptosis & necrosis: caspase 3/7: MEC: 49.8 µM
  Apoptosis & necrosis: cell cycle arrest: MEC: 35.8 µM
  Cell stress LOEC, ↓ in mitochondrial membrane potential: 11.6 µM
  Cellular ATP: MEC: 31.5 µM
  DNA damage: Phospho-p53: MEC: 22.8 µM
  DNA damage: p-H2AX: MEC: 13.4 µM
  ER stress panel 1: ER integrity: MEC: 23.3 µM
  ER stress panel 1: XBP1: MEC: 40.9 µM
  ER stress panel 2: CHOP: MEC: 69.0 µM
  Inflammation & pH: HIF1α: MEC: 44.8 µM
  Inflammation & pH: ICAM-1: MEC: 34.4 µM
  Inflammation & pH: intracellular pH: MEC: 50.6 µM
  Metal stress: MTF1: MEC: 25.5 µM
  Mitochondrial mass: MEC: 15.0 µM
  Mitochondrial membrane potential: MEC: 11.6 µM
  Nuclear size: MEC: 25.2 µM
  Osmotic & heat shock: NFAT: MEC: 49.4 µM
  Oxidative stress: HMOX1: MEC: 29.9 µM
  Oxidative stress: NRF2: MEC: 29.9 µM
  Seahorse assay: Extracellular acidification rate (ECAR): MEC: 27.7 µM
  Seahorse assay: oxygen consumption rate (OCR): MEC: 41.5 µM
  Seahorse assay: reserve capacity: MEC: 34.8 µM
Thyroid peroxidase
  Thyroid pathway: Thyroid peroxidase, Call: Pos
Monooxygenase
  Thyroid pathway: Monooxygenase (Not AOP), Call: Pos
Monooxygenase; read-out: Thyroid pathway: Monooxygenase (Not AOP), AC50
  AC50: 9.44 µM
ER
  ER agonist, Experimental: Active (medium)
  ER antagonist, Experimental: Active (weak)
  ER binding, Experimental: Active (medium)
Deiodinase
  Thyroid pathway: Deiodinase (Not AOP), Call: Pos
Deiodinase; read-out: Thyroid pathway: Deiodinase (Not AOP), AC50
  AC50: 2.43 µM
[1]
  Amount of parent chemical entering the systemic circulation: 7.2 % of the applied dose
COX2 (h)
  IC50: 13.6 µM
COX2 (h); read-out: COX2 (h): % inhibition @10 µM
  inhibition at 10 µM: 53.8%
Adenosine A2A (h)
  IC50: 10 µM
Adenosine A2A (h); read-out: Adenosine A2A (h) (agonist RL): % inhibition @10 µM
  inhibition at 10 µM: 52.2%
5-HT2B (h)
  IC50: 0.682 µM
5-HT2B (h); read-out: 5-HT2B (h) (agonist RL): % inhibition @10 µM
  inhibition at 10 µM: 91.9%
TSHR
  Thyroid pathway: Regulation of transcription factor activity (TSHR), Call: Neg
Estrogen pathway
  AC50: 0.01 µM
Aromatase
  Steroidogenesis: Aromatase, Call: Neg
